Laboratory results: PubChem BioAssay AID2060906 (Molecular Pharmacology Branch, DTP, NCI, 2025)

Test system: 485176-168-R4-J1-PDC complex spheroid growth
Test: Anticancer human tumor 485176-168-R4-J1-PDC patient-derived pancreatic adenocarcinoma cell line growth inhibition [RAS]
Conditions: for IC50: curve of first compound; for viability, T/C: stronger effect = lower value; active = viability on the fitted dose curve at most 10% of control; inactive = the rest
Outline: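 Agents were tested in combination matrices in half-log decrements from a top concentration at or near clinical Cmax (10 microM if undetermined). Targets were multi-cell spheroids of tumour lines plus HUVEC and MSC stromal cells.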
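Note: spheroids exposed to compounds for seven days before readout.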
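Throughout, for viability, T/C: luminescence viability expressed relative to DMSO vehicle wells set as 100%.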

CCN1CCN(Cc2ccc(Nc3ncc(F)c(-c4cc(F)c5nc(C)n(C(C)C)c5c4)n3)nc2)CC1 + CCn1c(-c2cc(N3CCN(C)CC3)cnc2C(C)OC)c2c3cc(ccc31)-c1csc(n1)CC(NC(=O)C1CC1C)C(=O)N1CCCC(N1)C(=O)OCC(C)(C)C2
756 nM: IC50 (second compound 0.00949 µM)
929 nM: IC50 (second compound 0.0949 µM)
938 nM: IC50 (second compound 0.03 µM)
> 1000 nM: IC50 (second compound 0.000949 µM) | IC50 (second compound 0.003 µM) | IC50 (second compound 0.3 µM)
inactive: viability, T/C (second compound 0.000949 µM, first compound 0.00316 µM) 78.7% | viability, T/C (second compound 0.000949 µM, first compound 0.01 µM) 80.9% | viability, T/C (second compound 0.000949 µM, first compound 0.0316 µM) 81% | viability, T/C (second compound 0.000949 µM, first compound 0.1 µM) 67.4% | viability, T/C (second compound 0.000949 µM, first compound 0.316 µM) 73% | viability, T/C (second compound 0.000949 µM, first compound 1 µM) 54.8% | viability, T/C (second compound 0.003 µM, first compound 0.00316 µM) 84.9% | viability, T/C (second compound 0.003 µM, first compound 0.01 µM) 76.5% | viability, T/C (second compound 0.003 µM, first compound 0.0316 µM) 85.2% | viability, T/C (second compound 0.003 µM, first compound 0.1 µM) 66.9% | viability, T/C (second compound 0.003 µM, first compound 0.316 µM) 62.7% | viability, T/C (second compound 0.003 µM, first compound 1 µM) 53.8% | viability, T/C (second compound 0.00949 µM, first compound 0.00316 µM) 75.3% | viability, T/C (second compound 0.00949 µM, first compound 0.01 µM) 85.8% | viability, T/C (second compound 0.00949 µM, first compound 0.0316 µM) 73.4% | viability, T/C (second compound 0.00949 µM, first compound 0.1 µM) 70.2% | viability, T/C (second compound 0.00949 µM, first compound 0.316 µM) 63% | viability, T/C (second compound 0.00949 µM, first compound 1 µM) 45.9% | viability, T/C (second compound 0.03 µM, first compound 0.00316 µM) 77.5% | viability, T/C (second compound 0.03 µM, first compound 0.01 µM) 68.1% | viability, T/C (second compound 0.03 µM, first compound 0.0316 µM) 75.3% | viability, T/C (second compound 0.03 µM, first compound 0.1 µM) 58.3% | viability, T/C (second compound 0.03 µM, first compound 0.316 µM) 63.8% | viability, T/C (second compound 0.03 µM, first compound 1 µM) 47.9% | viability, T/C (second compound 0.0949 µM, first compound 0.00316 µM) 64.7% | viability, T/C (second compound 0.0949 µM, first compound 0.01 µM) 74.7% | viability, T/C (second compound 0.0949 µM, first compound 0.0316 µM) 59.2% | viability, T/C (second compound 0.0949 µM, first compound 0.1 µM) 55.1% | viability, T/C (second compound 0.0949 µM, first compound 0.316 µM) 51.6% | viability, T/C (second compound 0.0949 µM, first compound 1 µM) 52% | viability, T/C (second compound 0.3 µM, first compound 0.00316 µM) 54.9% | viability, T/C (second compound 0.3 µM, first compound 0.01 µM) 76.6% | viability, T/C (second compound 0.3 µM, first compound 0.0316 µM) 70.9% | viability, T/C (second compound 0.3 µM, first compound 0.1 µM) 65.3% | viability, T/C (second compound 0.3 µM, first compound 0.316 µM) 53.5% | viability, T/C (second compound 0.3 µM, first compound 1 µM) 51%
